# How the values were obtained:
# Assay type in all cases: biochemical
# [1] = target: T1, Sirt2 (α-tubulin Lys40 deacetylation) (Homo sapiens, UniProt Q8IXJ6); assay: Tubulin deacetylation assay in HEK cell lysates with added Sirt2; conditions: 100 μM compound, 1 μg Sirt2
# T1 construct: Human gene fragment comprising Sirt2 residues 34-356; His-tag with linker comprising a TEV protease cleavage site (N, cleaved yes); made in house; host or cells: E. coli Rosetta2; the protein was added to HEK 293T cell lysate
# T1 sequence (Q8IXJ6 34-356): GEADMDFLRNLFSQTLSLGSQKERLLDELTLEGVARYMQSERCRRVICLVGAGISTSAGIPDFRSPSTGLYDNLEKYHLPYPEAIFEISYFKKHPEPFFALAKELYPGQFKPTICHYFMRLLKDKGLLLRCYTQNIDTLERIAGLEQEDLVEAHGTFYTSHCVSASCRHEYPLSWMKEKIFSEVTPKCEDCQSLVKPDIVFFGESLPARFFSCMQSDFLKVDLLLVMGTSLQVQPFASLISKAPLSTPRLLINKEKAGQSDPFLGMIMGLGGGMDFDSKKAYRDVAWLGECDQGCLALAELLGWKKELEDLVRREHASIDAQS
# Procedure: Our novel compounds 3 and 4 are potent and specific Sirt2 inhibitors in vitro, and we next tested the effect of 4 (compound 3 is likely to be sensitive to esterase activity in lysates) on the Sirt2-dependent deacetylation of an in vivo substrate in a physiological environment. The acetylation levels of the Sirt2-deacetylation site Lys40 in α-tubulin [12] were analyzed in HEK cell lysates by using an acetyl-Lys40 specific antibody (Figure 4a). […] Thus, compound 4 is an inhibitor for the physiological α-tubulin deacetylation activity of Sirt2.
# HEK 293T cells were grown in DMEM medium (PAN Biotech) supplemented with 10% fetal bovine serum (PAN Biotech) at 37°C and 5% CO2. Cells were harvested, washed with PBS, and resuspended and lysed using hypotonic buffer (10mM Tris-HCl, pH 8.0, 3mM KCl) supplemented with protease inhibitors cocktail. Cell debris was removed by centrifugation (10,000g, 10 minutes) at 4°C, and 50μl reaction were prepared with identical amounts of cell lysate and either 100 μM compound 4, 1 μg Sirt2, or both. All samples further contained the same amount of DMSO (to account for the solvent of the stock of 4) and 25 mM HEPES (pH 7.5; to compensate for the solvent of the NAD^+ stock). […]
# Sirt6 = target: T2, Sirt6 (Homo sapiens, UniProt Q8N6T7); assay: Fluor-de-Lys peptide deacetylation assay, Sirt6
# T2 construct: Sirt6 residues 13-308; His-tag with linker comprising a TEV protease cleavage site (N, cleaved yes); made in house; host or cells: E. coli Rosetta2
# T2 sequence (Q8N6T7 13-308): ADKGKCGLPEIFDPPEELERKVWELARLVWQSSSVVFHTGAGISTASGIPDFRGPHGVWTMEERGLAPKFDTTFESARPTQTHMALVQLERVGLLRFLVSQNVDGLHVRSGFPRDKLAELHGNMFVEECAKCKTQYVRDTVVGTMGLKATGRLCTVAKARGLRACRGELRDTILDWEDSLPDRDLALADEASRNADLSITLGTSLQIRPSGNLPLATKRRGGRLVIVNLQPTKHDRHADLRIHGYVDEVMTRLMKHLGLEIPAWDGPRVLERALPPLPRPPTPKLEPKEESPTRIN
# How it was run: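 Fluor-de-Lys kit run with FdL-1 peptide RHK(acetyl-K), 0.1 mM, plus 0.5 mM NAD+. Compounds at 100 μM final, 30 min at 37 °C, then trypsin developer for 45 min at room temperature.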
# Sirt5 = target: T3, Sirt5 (Homo sapiens, UniProt Q9NXA8); assay: Fluor-de-Lys peptide deacetylation assay, Sirt5
# T3 construct: Sirt5 residues 34-302; His-tag with linker comprising a TEV protease cleavage site (N); made in house
# T3 sequence (Q9NXA8 34-302): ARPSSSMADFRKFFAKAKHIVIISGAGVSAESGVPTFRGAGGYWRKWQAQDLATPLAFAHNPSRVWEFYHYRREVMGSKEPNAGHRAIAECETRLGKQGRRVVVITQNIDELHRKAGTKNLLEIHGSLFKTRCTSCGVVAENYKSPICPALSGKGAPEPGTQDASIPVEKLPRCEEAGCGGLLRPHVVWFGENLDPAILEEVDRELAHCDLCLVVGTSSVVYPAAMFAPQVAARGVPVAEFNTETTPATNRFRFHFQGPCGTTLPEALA
# How it was run: (§1)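 E. coli-expressed human Sirtuins with 0.5 mM NAD+ and 0.1 mM Fluor-de-Lys peptide: FdL-2 (QPK(acetyl-K)) for Sirt3, FdL-1 (RHK(acetyl-K)) for Sirt5. Compounds at 100 μM final; 30 min at 37 °C, then trypsin developer for 45 min at room temperature.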
# Sirt3 = target: T4, Sirt3 (Homo sapiens, UniProt Q9NTG7); assay: Fluor-de-Lys peptide deacetylation assay, Sirt3
# T4 construct: Sirt3 residues 114-399; His-tag with linker comprising a TEV protease cleavage site (N); made in house; host or cells: E. coli
# T4 sequence (Q9NTG7 114-399): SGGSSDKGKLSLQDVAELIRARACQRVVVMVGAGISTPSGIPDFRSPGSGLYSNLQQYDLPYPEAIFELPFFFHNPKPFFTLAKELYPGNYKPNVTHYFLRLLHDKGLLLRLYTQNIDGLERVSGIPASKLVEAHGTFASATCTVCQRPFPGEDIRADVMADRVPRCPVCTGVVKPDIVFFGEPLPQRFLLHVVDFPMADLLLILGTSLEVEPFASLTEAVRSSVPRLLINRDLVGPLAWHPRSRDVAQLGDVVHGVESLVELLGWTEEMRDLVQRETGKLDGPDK
# How it was run: as §1
structure (smiles),measurement,setting,value
"CC12Cc3cnc(-c4ccccc4)nc3CC1CCC1C2CCC2(C)C1CCC2(C)O (stereo not shown) [CSC13, 1,11a,13a-trimethyl-8-phenyl-2,3,3a,3b,4,5,5a,6,11,11a,11b,12,13,13a-tetradecahydro-1H-cyclopenta[5,6]naphtho[1,2-g]quinazolin-1-ol]",effect on Sirt2-dependent α-tubulin Lys40 deacetylation,[1],the deacetylation effect was decreased
same,Effect on the activity of Sirt6,Sirt6,--- (key: inhibition: significant inhibitory effects (>25% loss of activity); ---: no such effect)
same,Effect on the activity of Sirt5,Sirt5,--- (key: inhibition: significant inhibitory effects (>25% loss of activity); ---: no such effect)
same,Effect on the activity of Sirt3,Sirt3,--- (key: inhibition: significant inhibitory effects (>25% loss of activity); ---: no such effect)

# From article PMC3227451, “Structure-based development of novel sirtuin inhibitors” (Aging (Albany NY), 2011)
